Experimental data reported in PMC11997890, “In Vivo and In Vitro Pharmacokinetic Studies of a Dual Topoisomerase I/II Inhibitor” (ACS Pharmacology & Translational Science, 2025).

What was measured:
OvCar8 spheroids = test: 3D spheroid viability (RealTime-Glo); assay type: cell-based, human; details: OvCar8 3D spheroids, 48 h
Experimental: Tumor complexity is represented more realistically in 3D spheroid models than in 2D monolayer models.
OvCar8 cells (8000/well) were seeded into an Ultra-Low-Attachment plate (Corning #4520) and grown for 96 h. Then, spheroids were treated with the drugs for 48 h. Cell cytotoxicity was assessed using the CellTox Green Cytotoxicity Assay (Promega #G8731) 48 h after treatment with NYONE ([…], 485Ex/520Em). Filters: BFEx/GreenEm (530/43 nm); BlueEx (475/28 nm)/GreenEm (530/43 nm). Viability and apoptosis were determined by RealTime-Glo (460Em) (Promega #G9711) and caspase-Glo 3/7 (565Em) (Promega #G8090) according to the manufacturer’s instructions using a microplate reader (Spark, Tecan). Relative caspase activity: caspase activity divided by the viability (normalized to control). For live-dead staining, cells were grown and treated as described above. Then, 80% of the medium was removed and replaced with propidium iodide (PI) (15 μM), calcein-AM (0.2 μM), and Hoechst 33342 (1.8 μM) in medium for 3 h and imaged by NYONE ([…]). Filters: BFEx/GreenEm(530/43 nm); Hoechst 33342: UVEx (377/50 nm)/BlueEm (452/45 nm); calcein-AM: BlueEx (475/28 nm)/GreenEm (530/43 nm); propidium iodide: LimeEx(562/40 nm)/RedEm(628/32 nm). All experiments were performed in biological triplicates. PBS was used as the negative control, and cisplatin and P8-D6 as the positive control.

[1] = design: method as in not given; details: human liver microsomes; ref not given; cited from earlier work
[2] = cited from earlier work; for CL / Oral bioavailability / Protein binding / t 1/2 / V ss: literature values, ref numbers not given
CYP3A4 = tested on: CYP3A4; design: method as in not given; details: metabolized by CYP3A4; ref not given; cited from earlier work

N.N.[Cl][Pt][Cl] [cisplatin, reference compound]
IC50 (OvCar8 spheroids): 13.5 µM

CC[C@@]1(O)C(=O)OCc2c1cc1n(c2=O)Cc2cc3c(CN(C)C)c(O)ccc3nc2-1 [topotecan]
mean ratio of N-demethylated metabolite to topotecan [1]: approximately 3% | CL [2]: 14–34 L/(h m^2) | Oral bioavailability [2]: 32–44% | Protein binding [2]: 7–35% | t 1/2 [2]: 3.1 to 4 h

O=C(c1cc(Cc2n[nH]c(=O)c3ccccc23)ccc1F)N1CCN(C(=O)C2CC2)CC1 [Olaparib, olaparib]
rate of three major metabolites (CYP3A4): 8–12%

CCc1c2c(nc3ccc(OC(=O)N4CCC(N5CCCCC5)CC4)cc13)-c1cc3c(c(=O)n1C2)COC(=O)[C@]3(O)CC [irinotecan]
Protein binding [2]: 65%

COc1cc([C@@H]2c3cc4c(cc3[C@@H](O[C@@H]3O[C@@H]5CO[C@@H](C)O[C@H]5[C@H](O)[C@H]3O)[C@H]3COC(=O)[C@H]23)OCO4)cc(OC)c1O [etoposide]
CL [2]: 1–2 L/(h m^2) | Oral bioavailability [2]: 50 (40–75) % | Protein binding [2]: 94–95% | V ss [2]: 7.1 (5–17) L/m^2 | t 1/2 [2]: 6.4 h

COc1cccc2c1C(=O)c1c(O)c3c(c(O)c1C2=O)C[C@@](O)(C(=O)CO)C[C@@H]3O[C@H]1C[C@H](N)[C@H](O)[C@H](C)O1 [doxorubicin]
drug eliminated ([2]; after 7 days, ref not given): 25–45% | CL [2]: 12–34 L/(h m^2) | Oral bioavailability [2]: 5% | Protein binding [2]: 50–85% | V ss [2]: 809–1214 L/m^2 | t 1/2 [2]: 17.3 to 26 h

COc1cc2ncnc(Nc3ccc(F)c(Cl)c3)c2cc1OCCCN1CCOCC1 [gefitinib]
Protein binding [2]: > 97%

CC[C@@]1(O)C(=O)OCc2c1cc1n(c2=O)Cc2c-1nc1cc3c(cc1c2CN1CCN(C)CC1)OCCO3 [lurtotecan]
CL [2]: 60 L/(h m^2) | Oral bioavailability [2]: 11.3 ± 5.2% | Protein binding [2]: 90% | V ss [2]: 190 L/m^2 | t 1/2 [2]: 3.7 h
